Data from PMC8706998, “Lipid Nanocarriers-Loaded Nanocomposite as a Suitable Platform to Release Antibacterial and Antioxidant Agents for Immediate Dental Implant Placement Restorative Treatment” (Pharmaceutics, 2021).

Assay: Ex vivo permeation/penetration experiments in Franz-type cells
Type: in vitro ADME, pig
Settings: from 30 mg BioQ-CPX
Method: Tissue specimens were obtained from the vestibular area of the retromolar trigone derived from 6–8-month-old pigs supplied by the Municipal Slaughterhouse of Villabate (Palermo, Italy) since withdrawn from animals intended for human consumption. By a refrigerated transport box, the specimens were immediately transferred to the laboratory within 1 h from animal sacrifice and surgically treated to remove both adipose and connective tissues in excess. Afterward, they were dipped for 30 min in a 5% THR (w/v) isotonic solution and then stored at −80 °C for a minimum period of one week. Before the permeation/penetration experiments, tissue samples were accurately washed to remove the cryoprotectant, and, subsequently, thermal shocked to obtain the buccal mucosa. Briefly, tissue samples were dipped for 30 s in a pre-warmed (70 °C) isotonic solution, and then the mucosa was carefully peeled off from the connective tissue, obtaining the heat-separated epithelium along with the intact basal lamina. Finally, it was equilibrated in an isotonic solution for 3 h by replacing the medium every 15 min to remove all the biological matter, which could affect the analysis, before use.
The ex vivo permeation/penetration studies were carried out using vertical Franz-type diffusion cells. Briefly, appropriate sections of buccal mucosa were mounted between the donor and the acceptor chambers filled with 1 mL of citrate buffer pH 5.5 and 15 mL of citrate buffer pH 5.5 amended with acetic acid 0.1% (v/v), Acys 0.002% (w/v), and β-CD 3% (w/v). The whole system was equilibrated at 37 ± 0.5 °C for 30 min. Afterward, the medium was removed from the donor compartment, promptly replaced with 30 mg of BioQ-CPX, and soaked with 0.2 mL of citrate buffer pH 5.5. Every 30 min, aliquots (0.5 mL) were withdrawn from the acceptor chamber and immediately replaced with the same volume of fresh acceptor fluid to maintain the sink conditions. Experiments were carried out at 37 ± 0.5 °C in the dark and under constant stirring, being stopped at different time points ranging from 1 to 6 h. The amount of permeated QRC and CPX were quantified by UV–Vis analysis. Data are reported as means ± SE (n = 6).
Briefly, the mucosa was dipped into 2 mL of methanol and warmed up to 60 °C. The extraction procedure was performed twice, and the collected extraction liquors were transferred into a 10 mL flask and brought to volume with fresh methanol. Thus, QRC and CPX amounts were determined by UV–Vis analysis. Results are reported as means ± SE.

O=c1c(O)c(-c2ccc(O)c(O)c2)oc2cc(O)cc(O)c12 [QRC, quercetin]
maximum amount accumulated into the mucosa (after 5 h): about 5 % of drugs dose | amount accumulated into the mucosa (first hour from application): about 4 % of dose
